# Values quoted from earlier work, collected in patent US8187640B2, “Low viscosity liquid polymeric delivery system” (Dunn Research & Consulting, LLC, priority 2009, dated 2012).
# Test system: Male Sprague Dawley rats
# Conditions: given in an aqueous solution
substance,measurement,value
buprenorphine HCL,Duration of efficacy in the rat tail flick test,about 5 hours
